# Measured values as given in ChEMBL document CHEMBL2176970, “Discovery and optimization of a series of 3-(3-phenyl-3H-imidazo[4,5-b]pyridin-2-yl)pyridin-2-amines: orally bioavailable, selective, and potent ATP-independent Akt inhibitors” (J Med Chem, 2012).
# pIC50: −log10 of the molar value. Active and inactive are the calls of the source. The rule behind the calls is not given here.
# Tests used:
# [1] = target: Cyclin-dependent kinase 5/CDK5 activator 1 (Homo sapiens) (UniProt Q00535+Q15078); test: Inhibition of CDK5/p35 using fluorescent labelled substrate at 5 uM by caliper method; format: protein-complex assay
# [2] = target: Angiopoietin-1 receptor (Homo sapiens) (UniProt Q02763); test: Inhibition of TIE2 using fluorescent labelled substrate at 5 uM by caliper method
# [3] = target: Proto-oncogene tyrosine-protein kinase receptor Ret (Homo sapiens) (UniProt P07949); test: Inhibition of RET using fluorescent labelled substrate at 5 uM by caliper method
# [4] = target: Insulin receptor (Homo sapiens) (UniProt P06213); test: Inhibition of INSR using fluorescent labelled substrate at 5 uM by caliper method
# [5] = target: Macrophage colony-stimulating factor 1 receptor (Homo sapiens) (UniProt P07333); test: Inhibition of FMS using fluorescent labelled substrate at 5 uM by caliper method
# [6] = target: Fibroblast growth factor receptor 1 (Homo sapiens) (UniProt P11362); test: Inhibition of FGFR1 using fluorescent labelled substrate at 5 uM by caliper method
# [7] = target: Serine/threonine-protein kinase PAK 2 (Homo sapiens) (UniProt Q13177); test: Inhibition of PAK2 using fluorescent labelled substrate at 5 uM by caliper method
# [8] = target: Mitogen-activated protein kinase 3 (Homo sapiens) (UniProt P27361); test: Inhibition of MAPK3 using fluorescent labelled substrate at 5 uM by caliper method
# [9] = target: Ribosomal protein S6 kinase alpha-5 (Homo sapiens) (UniProt O75582); test: Inhibition of MSK1 using fluorescent labelled substrate at 5 uM by caliper method
# [10] = target: T1, RAC-alpha serine/threonine-protein kinase (Homo sapiens, UniProt P31749); test: Inhibition of Akt1 in human A2780 cells assessed as phosphorylation of Akt at S473 after 2 hrs by Western Blot analysis; format: cell-based
# [11] = target: T1, RAC-alpha serine/threonine-protein kinase; test: Inhibition of Akt 1 in human A2780 cells assessed as phosphorylation of Akt at T308 after 2 hrs by Western Blot analysis; format: cell-based
# [12] = target: T1, RAC-alpha serine/threonine-protein kinase; test: Inhibition of Akt 1 in human AN3CA cells assessed as phosphorylation of Akt at T308 after 2 hrs by Western Blot analysis; format: cell-based, AN3-CA
# [13] = target: T1, RAC-alpha serine/threonine-protein kinase; test: Inhibition of Akt1 in human AN3CA cells assessed as phosphorylation PRAS40 at T246 after 2 hrs by Western Blot analysis; format: cell-based, AN3-CA
# A2780 = test: Antiproliferative activity against human A2780 cells after 72 hrs by MTS assay; format: functional, cell-based; conditions: A2780, 72 h
# [14] = target: T2, RAC-gamma serine/threonine-protein kinase (Homo sapiens, UniProt Q9Y243); test: Binding affinity to Akt3 (1 to 479) expressed in Sf9 cells assessed as change in melting temperature at 15 uM
# [15] = target: RAC-beta serine/threonine-protein kinase (Homo sapiens, UniProt P31751); test: Inhibition of Akt2 (1 to 481) expressed in Sf9 cells using biotin-GRPRTSSFAEG as substrate after 20 mins by Alpha-screen assay
# [16] = target: T2, RAC-gamma serine/threonine-protein kinase; test: Inhibition of Akt3 (1 to 479) expressed in Sf9 cells using biotin-GRPRTSSFAEG as substrate after 20 mins by Alpha-screen assay
# Cytochrome P450 2C19 = Cytochrome P450 2C19 (Homo sapiens, UniProt P33261); test: Inhibition of CYP2C19 in human liver microsomes using S-mephenytoin as substrate after 10 mins; format: ADME, Microsome
# Cytochrome P450 2C9 = Cytochrome P450 2C9 (Homo sapiens, UniProt P11712); test: Inhibition of CYP2C9 in human liver microsomes using tolbutamide as substrate after 10 mins; format: ADME, Microsome
# Cytochrome P450 2D6 = Cytochrome P450 2D6 (Homo sapiens, UniProt P10635); test: Inhibition of CYP2D6 in human liver microsomes using bufuralol as substrate after 10 mins; format: ADME, Microsome
# Cytochrome P450 3A4 = Cytochrome P450 3A4 (Homo sapiens, UniProt P08684); test: Inhibition of CYP3A4 in human liver microsomes using midazolam as substrate after 10 mins; format: ADME, Microsome
# [17] = Half life in human liver microsomes at 1 uM by LC/MS/MS; format: ADME, Microsome
# [18] = Half life in male CD1 mouse liver microsomes at 1 uM by LC/MS/MS; format: ADME, Microsome
# [19] = Half life in female CD1 mouse liver microsomes at 1 uM by LC/MS/MS; format: ADME, Microsome
# [20] = target: Cyclin-dependent kinase 1/cyclin B1 (Homo sapiens) (UniProt P06493+P14635); test: Inhibition of CDK1/cyclinB using fluorescent labelled substrate at 5 uM by caliper method; format: protein-complex assay
# [21] = target: MAP kinase-activated protein kinase 2 (Homo sapiens) (UniProt P49137); test: Inhibition of MAPKAPK2 using fluorescent labelled substrate at 5 uM by caliper method
# [22] = target: Serine/threonine-protein kinase Sgk2 (Homo sapiens) (UniProt Q9HBY8); test: Inhibition of SGK2 using fluorescent labelled substrate at 5 uM by caliper method
# [23] = target: Serine/threonine-protein kinase Sgk1 (Homo sapiens) (UniProt O00141); test: Inhibition of SGK1 using fluorescent labelled substrate at 5 uM by caliper method
# [24] = target: Ribosomal protein S6 kinase alpha-2 (Homo sapiens) (UniProt Q15349); test: Inhibition of RSK3 using fluorescent labelled substrate at 5 uM by caliper method
# [25] = target: Ribosomal protein S6 kinase alpha-3 (Homo sapiens) (UniProt P51812); test: Inhibition of RSK2 using fluorescent labelled substrate at 5 uM by caliper method
# [26] = target: cAMP-dependent protein kinase catalytic subunit PRKX (Homo sapiens) (UniProt P51817); test: Inhibition of PRKX using fluorescent labelled substrate at 5 uM by caliper method
# [27] = target: Protein kinase C eta type (Homo sapiens) (UniProt P24723); test: Inhibition of PKCeta using fluorescent labelled substrate at 5 uM by caliper method
# [28] = target: 3-phosphoinositide-dependent protein kinase 1 (Homo sapiens) (UniProt O15530); test: Inhibition of PDK1 using fluorescent labelled substrate at 5 uM by caliper method
# [29] = target: Ribosomal protein S6 kinase beta-1 (Homo sapiens) (UniProt P23443); test: Inhibition of P70S6KB1 using fluorescent labelled substrate at 5 uM by caliper method
# [30] = target: Ribosomal protein S6 kinase alpha-4 (Homo sapiens) (UniProt O75676); test: Inhibition of MSK2 using fluorescent labelled substrate at 5 uM by caliper method
# [31] = target: T1, RAC-alpha serine/threonine-protein kinase; conditions: Sf9
# [32] = target: Ribosomal protein S6 kinase alpha-6 (Homo sapiens) (UniProt Q9UK32); test: Inhibition of RSK4 using fluorescent labelled substrate at 5 uM by caliper method
# Ribosomal protein S6 kinase alpha-6 (Homo sapiens), sequence (Q9UK32 whole entry, looked up): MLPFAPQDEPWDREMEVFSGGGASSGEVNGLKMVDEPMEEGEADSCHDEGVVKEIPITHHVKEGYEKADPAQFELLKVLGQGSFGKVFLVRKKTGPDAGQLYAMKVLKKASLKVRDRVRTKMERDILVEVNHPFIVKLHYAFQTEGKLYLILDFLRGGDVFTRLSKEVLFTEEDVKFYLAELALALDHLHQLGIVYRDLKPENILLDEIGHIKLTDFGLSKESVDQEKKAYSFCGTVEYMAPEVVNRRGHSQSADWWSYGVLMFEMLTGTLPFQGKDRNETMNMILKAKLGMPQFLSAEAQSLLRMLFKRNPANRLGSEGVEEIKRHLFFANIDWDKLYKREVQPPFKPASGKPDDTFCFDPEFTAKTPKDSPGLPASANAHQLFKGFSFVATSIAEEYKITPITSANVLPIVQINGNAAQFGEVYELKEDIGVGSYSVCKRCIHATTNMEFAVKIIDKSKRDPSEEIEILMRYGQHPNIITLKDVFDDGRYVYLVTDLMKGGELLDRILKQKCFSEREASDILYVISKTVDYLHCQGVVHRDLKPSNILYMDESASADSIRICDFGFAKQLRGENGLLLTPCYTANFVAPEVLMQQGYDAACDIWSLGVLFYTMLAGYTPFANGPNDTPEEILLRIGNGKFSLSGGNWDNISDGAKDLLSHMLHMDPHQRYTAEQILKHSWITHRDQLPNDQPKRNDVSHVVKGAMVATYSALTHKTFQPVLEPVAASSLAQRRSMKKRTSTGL
# T1 sequence (P31749 whole entry): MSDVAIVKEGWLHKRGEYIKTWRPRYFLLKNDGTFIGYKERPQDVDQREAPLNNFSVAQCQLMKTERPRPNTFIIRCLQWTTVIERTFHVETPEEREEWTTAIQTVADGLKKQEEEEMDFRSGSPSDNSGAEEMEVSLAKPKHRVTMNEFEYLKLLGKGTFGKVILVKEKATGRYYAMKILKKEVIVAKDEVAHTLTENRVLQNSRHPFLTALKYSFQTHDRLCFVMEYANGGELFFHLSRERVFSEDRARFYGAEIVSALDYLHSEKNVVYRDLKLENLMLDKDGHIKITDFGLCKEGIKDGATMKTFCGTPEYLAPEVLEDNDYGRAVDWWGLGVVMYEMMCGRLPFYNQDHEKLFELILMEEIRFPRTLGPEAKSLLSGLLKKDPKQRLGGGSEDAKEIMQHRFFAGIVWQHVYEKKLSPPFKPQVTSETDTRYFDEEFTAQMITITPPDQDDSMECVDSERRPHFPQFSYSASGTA
# T2 sequence (Q9Y243 whole entry): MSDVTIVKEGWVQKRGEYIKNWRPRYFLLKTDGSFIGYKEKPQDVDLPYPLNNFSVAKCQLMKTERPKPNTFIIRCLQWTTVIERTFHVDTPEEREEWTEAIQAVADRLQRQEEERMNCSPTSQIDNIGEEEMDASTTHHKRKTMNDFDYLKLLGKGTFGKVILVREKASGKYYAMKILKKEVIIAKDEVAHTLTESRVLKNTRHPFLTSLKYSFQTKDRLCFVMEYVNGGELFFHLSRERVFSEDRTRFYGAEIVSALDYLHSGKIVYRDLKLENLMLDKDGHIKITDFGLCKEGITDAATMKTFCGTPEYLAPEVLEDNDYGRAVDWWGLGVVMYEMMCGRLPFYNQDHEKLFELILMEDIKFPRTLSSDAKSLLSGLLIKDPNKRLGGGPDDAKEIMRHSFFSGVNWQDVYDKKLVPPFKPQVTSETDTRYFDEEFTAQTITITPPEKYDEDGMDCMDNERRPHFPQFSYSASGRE
# MAP kinase-activated protein kinase 2 (Homo sapiens), sequence (P49137 whole entry, looked up): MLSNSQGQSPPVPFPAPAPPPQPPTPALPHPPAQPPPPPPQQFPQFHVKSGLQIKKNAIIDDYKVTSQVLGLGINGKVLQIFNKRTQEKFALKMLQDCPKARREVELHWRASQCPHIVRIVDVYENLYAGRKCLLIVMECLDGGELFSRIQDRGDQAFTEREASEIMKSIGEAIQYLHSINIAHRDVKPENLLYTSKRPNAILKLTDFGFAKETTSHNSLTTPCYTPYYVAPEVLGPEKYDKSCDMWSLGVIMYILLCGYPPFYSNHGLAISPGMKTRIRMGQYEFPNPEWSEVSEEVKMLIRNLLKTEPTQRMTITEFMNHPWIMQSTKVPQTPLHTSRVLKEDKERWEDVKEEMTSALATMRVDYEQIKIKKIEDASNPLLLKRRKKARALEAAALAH
# Mitogen-activated protein kinase 3 (Homo sapiens), sequence (P27361 whole entry): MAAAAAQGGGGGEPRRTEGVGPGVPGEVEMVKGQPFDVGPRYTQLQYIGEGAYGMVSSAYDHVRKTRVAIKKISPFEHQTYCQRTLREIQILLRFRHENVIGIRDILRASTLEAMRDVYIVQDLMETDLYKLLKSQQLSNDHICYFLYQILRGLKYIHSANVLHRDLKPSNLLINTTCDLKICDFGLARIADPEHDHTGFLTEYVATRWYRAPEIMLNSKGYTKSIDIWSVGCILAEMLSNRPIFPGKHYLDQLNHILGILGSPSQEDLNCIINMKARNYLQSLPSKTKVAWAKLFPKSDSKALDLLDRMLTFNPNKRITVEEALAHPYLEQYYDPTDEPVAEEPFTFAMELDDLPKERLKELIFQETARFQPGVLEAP
# Protein kinase C eta type (Homo sapiens), sequence (P24723 whole entry): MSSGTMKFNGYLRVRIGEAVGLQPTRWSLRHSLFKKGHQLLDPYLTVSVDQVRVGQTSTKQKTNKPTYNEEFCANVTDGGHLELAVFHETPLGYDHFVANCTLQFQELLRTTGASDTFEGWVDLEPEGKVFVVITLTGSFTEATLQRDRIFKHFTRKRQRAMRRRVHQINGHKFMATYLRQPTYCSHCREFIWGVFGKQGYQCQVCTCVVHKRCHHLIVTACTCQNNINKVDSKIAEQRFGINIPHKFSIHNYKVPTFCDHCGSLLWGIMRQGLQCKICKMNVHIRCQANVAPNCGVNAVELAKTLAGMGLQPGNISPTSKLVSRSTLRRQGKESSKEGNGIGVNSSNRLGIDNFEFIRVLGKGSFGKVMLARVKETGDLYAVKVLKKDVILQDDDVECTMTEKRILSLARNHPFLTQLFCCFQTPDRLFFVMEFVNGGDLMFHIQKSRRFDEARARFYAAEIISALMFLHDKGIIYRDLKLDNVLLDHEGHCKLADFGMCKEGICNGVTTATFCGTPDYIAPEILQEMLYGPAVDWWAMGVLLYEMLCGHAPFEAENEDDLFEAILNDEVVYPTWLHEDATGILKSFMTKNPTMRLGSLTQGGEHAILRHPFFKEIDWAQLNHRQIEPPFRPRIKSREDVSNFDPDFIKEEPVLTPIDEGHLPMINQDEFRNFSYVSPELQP
# Serine/threonine-protein kinase Sgk2 (Homo sapiens), sequence (Q9HBY8 whole entry): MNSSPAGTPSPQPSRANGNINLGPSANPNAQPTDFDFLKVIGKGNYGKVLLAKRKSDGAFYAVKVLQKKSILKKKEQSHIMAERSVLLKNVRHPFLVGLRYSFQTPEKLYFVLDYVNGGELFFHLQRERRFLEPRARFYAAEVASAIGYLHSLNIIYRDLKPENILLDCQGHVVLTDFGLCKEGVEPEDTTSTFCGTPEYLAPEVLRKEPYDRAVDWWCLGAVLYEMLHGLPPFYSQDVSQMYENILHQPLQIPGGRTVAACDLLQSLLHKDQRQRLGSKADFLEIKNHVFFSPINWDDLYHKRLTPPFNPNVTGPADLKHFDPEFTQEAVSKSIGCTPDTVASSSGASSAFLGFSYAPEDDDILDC
# Ribosomal protein S6 kinase alpha-2 (Homo sapiens), sequence (Q15349 whole entry): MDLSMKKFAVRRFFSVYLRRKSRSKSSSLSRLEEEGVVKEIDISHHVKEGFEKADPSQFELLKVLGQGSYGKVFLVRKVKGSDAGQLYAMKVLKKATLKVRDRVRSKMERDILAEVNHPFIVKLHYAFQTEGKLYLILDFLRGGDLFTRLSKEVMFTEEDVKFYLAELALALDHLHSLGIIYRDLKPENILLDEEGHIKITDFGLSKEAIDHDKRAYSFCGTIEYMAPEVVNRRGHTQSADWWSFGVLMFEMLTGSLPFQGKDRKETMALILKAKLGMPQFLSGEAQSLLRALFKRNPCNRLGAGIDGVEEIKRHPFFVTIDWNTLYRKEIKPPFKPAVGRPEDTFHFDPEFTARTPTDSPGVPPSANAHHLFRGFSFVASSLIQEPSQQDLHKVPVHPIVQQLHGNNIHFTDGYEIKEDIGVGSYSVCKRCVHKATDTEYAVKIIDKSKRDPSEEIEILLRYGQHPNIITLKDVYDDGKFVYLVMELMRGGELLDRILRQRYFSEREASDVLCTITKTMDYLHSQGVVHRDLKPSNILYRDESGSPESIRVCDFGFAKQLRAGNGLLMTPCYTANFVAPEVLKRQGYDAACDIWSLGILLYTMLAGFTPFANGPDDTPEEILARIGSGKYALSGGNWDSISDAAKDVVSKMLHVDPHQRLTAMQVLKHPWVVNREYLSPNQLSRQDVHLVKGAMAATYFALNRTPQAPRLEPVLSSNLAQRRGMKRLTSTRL
# Cytochrome P450 2C9, sequence (P11712 whole entry): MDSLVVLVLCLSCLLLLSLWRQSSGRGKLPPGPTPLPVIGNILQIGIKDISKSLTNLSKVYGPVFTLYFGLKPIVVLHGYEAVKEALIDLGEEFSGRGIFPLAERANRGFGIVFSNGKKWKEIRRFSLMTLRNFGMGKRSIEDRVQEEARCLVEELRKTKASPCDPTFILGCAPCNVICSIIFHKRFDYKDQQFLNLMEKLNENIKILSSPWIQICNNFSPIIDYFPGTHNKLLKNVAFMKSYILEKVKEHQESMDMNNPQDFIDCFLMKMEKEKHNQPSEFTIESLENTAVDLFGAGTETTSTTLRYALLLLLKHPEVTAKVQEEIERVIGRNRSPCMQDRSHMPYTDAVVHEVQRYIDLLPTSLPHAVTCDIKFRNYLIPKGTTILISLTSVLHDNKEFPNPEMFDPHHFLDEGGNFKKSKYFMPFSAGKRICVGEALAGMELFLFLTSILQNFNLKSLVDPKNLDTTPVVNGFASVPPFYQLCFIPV
Compound,inhibition [1],inhibition [2],inhibition [3],inhibition [4],inhibition [5],inhibition [6],inhibition [7],inhibition [8],inhibition [9],pIC50 [10],pIC50 [11],pIC50 [12],pIC50 [13],pIC50 (A2780),deltaTm [14],pIC50 [15],pIC50 [16],pIC50 (Cytochrome P450 2C19),pIC50 (Cytochrome P450 2C9),pIC50 (Cytochrome P450 2D6),further results
Nc1ncccc1-c1nc2cccnc2n1-c1ccc(CNC(=O)c2ccccc2)cc1,> 25%,> 25%,> 25%,> 25%,> 25%,> 25%,> 25%,> 25%,> 25%,6.39,6.43,< 5.00,< 5.00,< 4.00,inactive,6.18,4.62,< 5.00,< 5.00,< 5.00,pIC50 (Cytochrome P450 3A4): < 5.00; half-life at 1 µM [17]: 1 h; half-life at 1 µM [18]: > 1 h; half-life at 1 µM [19]: > 1 h; inhibition [20]: > 25%; inhibition [21]: > 25%; inhibition [22]: > 25%; inhibition [23]: > 25%; inhibition [24]: > 25%; inhibition [25]: > 25%; inhibition [26]: > 25%; inhibition [27]: > 25%; inhibition [28]: > 25%; inhibition [29]: > 25%; inhibition [30]: > 25%; ΔTm [31]: 6.4 °C; inhibition [32]: > 25%
Nc1ncccc1-c1nc2cccnc2n1-c1ccc(CC(=O)Nc2ccccc2)cc1,> 25%,> 25%,> 25%,> 25%,> 25%,> 25%,> 25%,> 25%,> 25%,6.68,5.89,< 5.00,< 5.00,4.24,inactive,6.15,4.66,< 5.00,< 5.00,< 5.00,pIC50 (Cytochrome P450 3A4): < 5.00; half-life at 1 µM [17]: 0.793 h; half-life at 1 µM [18]: > 1 h; half-life at 1 µM [19]: > 1 h; inhibition [20]: > 25%; inhibition [21]: > 25%; inhibition [22]: > 25%; inhibition [23]: > 25%; inhibition [24]: > 25%; inhibition [25]: > 25%; inhibition [26]: > 25%; inhibition [27]: > 25%; inhibition [28]: > 25%; inhibition [29]: > 25%; inhibition [30]: > 25%; ΔTm [31]: 6.7 °C; inhibition [32]: > 25%
